Experimental data taken from patent US6914045B2, “Glycopeptide antibiotics” (Wyeth Holdings Corporation, priority 2001, dated 2005).
≈ marks a conversion by molar mass, not a printed value.

How the values were obtained:
Test in all cases: in vitro antibacterial evaluation, MIC by broth dilution
Format in all cases: cell-based
Escherichia coli = conditions: 18 hours at 35° C.
Method in brief: (§1)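 MIC = lowest antibiotic concentration preventing visible growth; inoculum 5×10^5 CFU/mL; drug range 64-0.06 μg/mL; Muller-Hinton II […]; NCCLS M7-A2 guidance.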

Staphylococcus sp. = conditions: broth dilution, 18 hours at 35° C.
Method in brief: as §1

Enterococcus sp. = conditions: broth dilution, 18 hours at 35° C.
Method in brief: as §1

Streptococcus sp. = conditions: broth dilution, 18 hours at 35° C.
Method in brief: as §1

CCCCOC(=O)CCC1OCC2OC(OC3C(CO)OC(Oc4ccc(CC5NC(=O)C(C(C)c6ccccc6)NC(=O)CNC(=O)C(CO)NC(=O)C(C(O)C6CNC(=N)N6C6OC(CO)C(O)C(O)C6O)NC(=O)C(C(O)C6CNC(=N)N6)NC5=O)cc4)C(O)C3O)C(O)C(O)C2O1 (stereo not drawn) [Example 114, Cyclo[glycyl-β-methylphenylalanyl-O-[4-O-[4,6-O-(4-butoxy-4-oxobutylidene)hexopyranosyl]-hexopyranosyl]tyrosyl-3-(2-iminoimidazolidin-4-yl)seryl-3-(3-hexopyranosyl-2-iminoimidazolidin-4-yl)serylseryl]]
MIC Escherichia coli (ATCC 25922) (Escherichia coli; strain ATCC 25922): 64 µg/mL (≈ 44.6 µM)
MIC Escherichia coli (GC 4559) (Escherichia coli; strain GC 4559): 64 µg/mL (≈ 44.6 µM)
MIC Escherichia coli (GC 4560) (Escherichia coli; strain GC 4560): 1 µg/mL (≈ 0.697 µM)
MIC Coagulase Negative Staphylococcus (GC 4547) (Staphylococcus sp.): 2 µg/mL (≈ 1.39 µM)
MIC Coagulase Negative Staphylococcus (GC 4548) (Staphylococcus sp.): 1 µg/mL (≈ 0.697 µM)
MIC Coagulase Negative Staphylococcus (GC 4549) (Staphylococcus sp.): 2 µg/mL (≈ 1.39 µM)
MIC Coagulase Negative Staphylococcus (GC 4551) (Staphylococcus sp.): 2 µg/mL (≈ 1.39 µM)
MIC Coagulase Negative Staphylococcus (GC 6257) (Staphylococcus sp.): 1 µg/mL (≈ 0.697 µM)
MIC Staphylococcus aureus (ATCC 29213) (Staphylococcus sp.): 2 µg/mL (≈ 1.39 µM)
MIC Staphylococcus aureus (GC 1131) (Staphylococcus sp.): 2 µg/mL (≈ 1.39 µM)
MIC Staphylococcus aureus (GC 3051) (Staphylococcus sp.): 2 µg/mL (≈ 1.39 µM)
MIC Staphylococcus aureus (GC 3053) (Staphylococcus sp.): 2 µg/mL (≈ 1.39 µM)
MIC Staphylococcus aureus (GC 4541) (Staphylococcus sp.): 2 µg/mL (≈ 1.39 µM)
MIC Staphylococcus aureus (GC 4542) (Staphylococcus sp.): 1 µg/mL (≈ 0.697 µM)
MIC Staphylococcus aureus (GC 4544) (Staphylococcus sp.): 2 µg/mL (≈ 1.39 µM)
MIC Staphylococcus aureus (GC 4545) (Staphylococcus sp.): 2 µg/mL (≈ 1.39 µM)
MIC Staphylococcus aureus-SMITH (GC 4543) (Staphylococcus sp.): 2 µg/mL (≈ 1.39 µM)
MIC Staphylococcus haemolyticus (GC 4546) (Staphylococcus sp.): 1 µg/mL (≈ 0.697 µM)
MIC Staphylococcus aureus (GC 1131) (Staphylococcus sp.; inoculum 5×10^5 CFU/mL, strain GC 1131): 2 µg/mL (≈ 1.39 µM)
MIC Staphylococcus aureus (ATCC 29213) (Staphylococcus sp.; strain ATCC 29213): 2 µg/mL (≈ 1.39 µM)
MIC Staphylococcus aureus (GC 3051) (Staphylococcus sp.; strain GC 3051): 2 µg/mL (≈ 1.39 µM)
MIC Staphylococcus aureus (GC 3053) (Staphylococcus sp.; strain GC 3053): 2 µg/mL (≈ 1.39 µM)
MIC Staphylococcus aureus (GC 4541) (Staphylococcus sp.; strain GC 4541): 2 µg/mL (≈ 1.39 µM)
MIC Staphylococcus aureus (GC 4542) (Staphylococcus sp.; strain GC 4542): 1 µg/mL (≈ 0.697 µM)
MIC Staphylococcus aureus (GC 4544) (Staphylococcus sp.; strain GC 4544): 2 µg/mL (≈ 1.39 µM)
MIC Staphylococcus aureus (GC 4545) (Staphylococcus sp.; strain GC 4545): 2 µg/mL (≈ 1.39 µM)
MIC Staphylococcus haemolyticus (GC 4546) (Staphylococcus sp.; strain GC 4546): 1 µg/mL (≈ 0.697 µM)
MIC Coagulase Negative Staphylococcus (GC 4547) (Staphylococcus sp.; strain GC 4547): 2 µg/mL (≈ 1.39 µM)
MIC Coagulase Negative Staphylococcus (GC 4548) (Staphylococcus sp.; strain GC 4548): 1 µg/mL (≈ 0.697 µM)
MIC Coagulase Negative Staphylococcus (GC 4549) (Staphylococcus sp.; strain GC 4549): 2 µg/mL (≈ 1.39 µM)
MIC Coagulase Negative Staphylococcus (GC 4551) (Staphylococcus sp.; strain GC 4551): 2 µg/mL (≈ 1.39 µM)
MIC Coagulase Negative Staphylococcus (GC 6257) (Staphylococcus sp.; strain GC 6257): 1 µg/mL (≈ 0.697 µM)
MIC Staphylococcus aureus-SMITH (GC 4543) (Staphylococcus sp.; strain SMITH GC 4543): 2 µg/mL (≈ 1.39 µM)
MIC Enterococcus avium (GC 4558) (Enterococcus sp.; Enterococcus avium (GC 4558)): 8 µg/mL (≈ 5.57 µM)
MIC Enterococcus faecalis (ATCC 29212) (Enterococcus sp.; Enterococcus faecalis (ATCC 29212)): 4 µg/mL (≈ 2.79 µM)
MIC Enterococcus faecalis (GC 2242) (Enterococcus sp.; Enterococcus faecalis (GC 2242)): 4 µg/mL (≈ 2.79 µM)
MIC Enterococcus faecalis (GC 2691) (Enterococcus sp.; Enterococcus faecalis (GC 2691)): 4 µg/mL (≈ 2.79 µM)
MIC Enterococcus faecalis (GC 3059) (Enterococcus sp.; Enterococcus faecalis (GC 3059)): 8 µg/mL (≈ 5.57 µM)
MIC Enterococcus faecalis (GC 4552) (Enterococcus sp.; Enterococcus faecalis (GC 4552)): 4 µg/mL (≈ 2.79 µM)
MIC Enterococcus faecalis (GC 4553) (Enterococcus sp.; Enterococcus faecalis (GC 4553)): 8 µg/mL (≈ 5.57 µM)
MIC Enterococcus faecalis (GC 4554) (Enterococcus sp.; Enterococcus faecalis (GC 4554)): 4 µg/mL (≈ 2.79 µM)
MIC Enterococcus faecalis (GC 6189) (Enterococcus sp.; Enterococcus faecalis (GC 6189)): 4 µg/mL (≈ 2.79 µM)
MIC Enterococcus faecium (GC 2243) (Enterococcus sp.; Enterococcus faecium (GC 2243)): 4 µg/mL (≈ 2.79 µM)
MIC Enterococcus faecium (GC 4556) (Enterococcus sp.; Enterococcus faecium (GC 4556)): 4 µg/mL (≈ 2.79 µM)
MIC Enterococcus faecium (GC 4557) (Enterococcus sp.; Enterococcus faecium (GC 4557)): 2 µg/mL (≈ 1.39 µM)
MIC Enterococcus faecalis (ATCC 29212) (Enterococcus sp.; strain ATCC 29212): 4 µg/mL (≈ 2.79 µM)
MIC Enterococcus faecalis (GC 2242) (Enterococcus sp.; strain GC 2242): 4 µg/mL (≈ 2.79 µM)
MIC Enterococcus faecium (GC 2243) (Enterococcus sp.; strain GC 2243): 4 µg/mL (≈ 2.79 µM)
MIC Enterococcus faecalis (GC 2691) (Enterococcus sp.; strain GC 2691): 4 µg/mL (≈ 2.79 µM)
MIC Enterococcus faecalis (GC 3059) (Enterococcus sp.; strain GC 3059): 8 µg/mL (≈ 5.57 µM)
MIC Enterococcus faecalis (GC 4552) (Enterococcus sp.; strain GC 4552): 4 µg/mL (≈ 2.79 µM)
MIC Enterococcus faecalis (GC 4553) (Enterococcus sp.; strain GC 4553): 8 µg/mL (≈ 5.57 µM)
MIC Enterococcus faecalis (GC 4554) (Enterococcus sp.; strain GC 4554): 4 µg/mL (≈ 2.79 µM)
MIC Enterococcus faecium (GC 4556) (Enterococcus sp.; strain GC 4556): 4 µg/mL (≈ 2.79 µM)
MIC Enterococcus faecium (GC 4557) (Enterococcus sp.; strain GC 4557): 2 µg/mL (≈ 1.39 µM)
MIC Enterococcus avium (GC 4558) (Enterococcus sp.; strain GC 4558): 8 µg/mL (≈ 5.57 µM)
MIC Enterococcus faecalis (GC 6189) (Enterococcus sp.; strain GC 6189): 4 µg/mL (≈ 2.79 µM)
MIC Streptococcus agalactiae (GC 4564) (Streptococcus sp.; Streptococcus agalactiae (GC 4564)): 0.5 µg/mL (≈ 0.348 µM)
MIC Streptococcus pneumoniae (ATCC 6301) (Streptococcus sp.; Streptococcus pneumoniae (ATCC 6301)): 0.12 µg/mL (≈ 0.0836 µM)
MIC Streptococcus pneumoniae (GC 1894) (Streptococcus sp.; Streptococcus pneumoniae (GC 1894)): <0.06 µg/mL
MIC Streptococcus pneumoniae (GC 4565) (Streptococcus sp.; Streptococcus pneumoniae (GC 4565)): 0.25 µg/mL (≈ 0.174 µM)
MIC Streptococcus pyogenes (GC 4563) (Streptococcus sp.; Streptococcus pyogenes (GC 4563)): 0.5 µg/mL (≈ 0.348 µM)
MIC Streptococcus pneumoniae (ATCC 6301) (Streptococcus sp.; strain ATCC 6301): 0.12 µg/mL (≈ 0.0836 µM)
MIC Streptococcus pneumoniae (GC 1894) (Streptococcus sp.; strain GC 1894): <0.06 µg/mL
MIC Streptococcus pyogenes (GC 4563) (Streptococcus sp.; strain GC 4563): 0.5 µg/mL (≈ 0.348 µM)
MIC Streptococcus agalactiae (GC 4564) (Streptococcus sp.; strain GC 4564): 0.5 µg/mL (≈ 0.348 µM)
MIC Streptococcus pneumoniae (GC 4565) (Streptococcus sp.; strain GC 4565): 0.25 µg/mL (≈ 0.174 µM)
